Laboratory results taken from PMC11003488 (Journal of Enzyme Inhibition and Medicinal Chemistry, 2023).
Read-outs that look alike come from different tables or passages of the source.

What was measured:
[1] = tested on: OVCAR-8; assay: NCI-60 SRB growth inhibition, one-dose and five-dose; type: cell-based; conditions: Homo sapiens, OVCAR-8, read-out: percent growth inhibition
[2] = tested on: ACHN; assay: as above; type: cell-based; conditions: Homo sapiens
[3] = tested on: Renal cancer cell lines; assay: NCI-60 SRB growth inhibition, subpanel; type: cell-based, human; conditions: for GI50: Homo sapiens
[4] = tested on: CAKI-1; assay: NCI-60 SRB growth inhibition, one-dose and five-dose; type: cell-based; conditions: Homo sapiens
[5] = tested on: Colon cancer cell lines; assay: NCI-60 SRB growth inhibition, subpanel; type: cell-based, human; conditions: for GI50: Homo sapiens
[6] = tested on: Prostate cancer cell lines; assay: NCI-60 SRB growth inhibition, subpanel; type: cell-based, human; conditions: for GI50: Homo sapiens
[7] = tested on: T-47D; assay: NCI-60 SRB growth inhibition, one-dose and five-dose; type: cell-based; conditions: Homo sapiens, T47D
[8] = tested on: MDA-MB-231/ATCC; assay: as above; type: cell-based; conditions: Homo sapiens, MDA-MB-231
[9] = Cytotoxicity towards normal fibroblasts, safety index; type: cell-based, human; conditions: human, WI-38 normal fibroblast cells
[10] = tested on: WI-38 normal human fibroblast cells; assay: as above; type: cell-based; conditions: WI-38 versus cancer cell lines
[11] = target: Human VEGFR-2 (Homo sapiens, UniProt P35968); assay: VEGFR-2 inhibition assay; type: biochemical
[12] = tested on: SK-MEL-2; assay: NCI-60 SRB growth inhibition, one-dose and five-dose; type: cell-based; conditions: Homo sapiens, SK-MEL-2, read-out: percent growth inhibition
[13] = tested on: Ovarian cancer cell lines; assay: NCI-60 SRB growth inhibition, subpanel; type: cell-based, human; conditions: for GI50: Homo sapiens
[14] = tested on: SN12C; assay: NCI-60 SRB growth inhibition, one-dose and five-dose; type: cell-based; conditions: Homo sapiens
[15] = tested on: UO-31; assay: as above; type: cell-based; conditions: Homo sapiens, UO-31
[16] = tested on: KM12; assay: as above; type: cell-based; conditions: Homo sapiens
[17] = tested on: RPMI-8226; assay: as above; type: cell-based; conditions: Homo sapiens
[18] = tested on: CNS cancer cell lines; assay: NCI-60 SRB growth inhibition, subpanel; type: cell-based, human; conditions: for GI50: Homo sapiens
[19] = tested on: NCI 60-cell line panel (full panel); assay: NCI-60 SRB growth inhibition, full panel mean / MG-MID; type: cell-based, human; conditions: for GI50: Homo sapiens, 60 cell
[20] = tested on: HCT-15; assay: NCI-60 SRB growth inhibition, one-dose and five-dose; type: cell-based; conditions: Homo sapiens
[21] = tested on: UACC-257; assay: as above; type: cell-based; conditions: Homo sapiens
[22] = tested on: HCC-2998; assay: as above; type: cell-based; conditions: Homo sapiens
[23] = tested on: Breast cancer cell lines; assay: NCI-60 SRB growth inhibition, subpanel; type: cell-based, human; conditions: for GI50: Homo sapiens
[24] = tested on: OVCAR-3; assay: NCI-60 SRB growth inhibition, one-dose and five-dose; type: cell-based; conditions: Homo sapiens
[25] = tested on: NCI-H23; assay: as above; type: cell-based; conditions: Homo sapiens
[26] = tested on: NSCLC cell lines; assay: NCI-60 SRB growth inhibition, subpanel; type: cell-based, human; conditions: for GI50: Homo sapiens
[27] = tested on: EKVX; assay: NCI-60 SRB growth inhibition, one-dose and five-dose; type: cell-based; conditions: Homo sapiens
[28] = tested on: MCF7; assay: as above; type: cell-based; conditions: Homo sapiens
[29] = tested on: HCT-116; assay: as above; type: cell-based; conditions: Homo sapiens
[30] = tested on: Melanoma cell lines; assay: NCI-60 SRB growth inhibition, subpanel; type: cell-based, human; conditions: for GI50: Homo sapiens
[31] = tested on: Leukaemia cell lines; assay: NCI-60 SRB growth inhibition, subpanel; type: cell-based, human; conditions: for GI50: Homo sapiens
[32] = read-out: percent growth inhibition

Sequence of Human VEGFR-2 (P35968 20-1356): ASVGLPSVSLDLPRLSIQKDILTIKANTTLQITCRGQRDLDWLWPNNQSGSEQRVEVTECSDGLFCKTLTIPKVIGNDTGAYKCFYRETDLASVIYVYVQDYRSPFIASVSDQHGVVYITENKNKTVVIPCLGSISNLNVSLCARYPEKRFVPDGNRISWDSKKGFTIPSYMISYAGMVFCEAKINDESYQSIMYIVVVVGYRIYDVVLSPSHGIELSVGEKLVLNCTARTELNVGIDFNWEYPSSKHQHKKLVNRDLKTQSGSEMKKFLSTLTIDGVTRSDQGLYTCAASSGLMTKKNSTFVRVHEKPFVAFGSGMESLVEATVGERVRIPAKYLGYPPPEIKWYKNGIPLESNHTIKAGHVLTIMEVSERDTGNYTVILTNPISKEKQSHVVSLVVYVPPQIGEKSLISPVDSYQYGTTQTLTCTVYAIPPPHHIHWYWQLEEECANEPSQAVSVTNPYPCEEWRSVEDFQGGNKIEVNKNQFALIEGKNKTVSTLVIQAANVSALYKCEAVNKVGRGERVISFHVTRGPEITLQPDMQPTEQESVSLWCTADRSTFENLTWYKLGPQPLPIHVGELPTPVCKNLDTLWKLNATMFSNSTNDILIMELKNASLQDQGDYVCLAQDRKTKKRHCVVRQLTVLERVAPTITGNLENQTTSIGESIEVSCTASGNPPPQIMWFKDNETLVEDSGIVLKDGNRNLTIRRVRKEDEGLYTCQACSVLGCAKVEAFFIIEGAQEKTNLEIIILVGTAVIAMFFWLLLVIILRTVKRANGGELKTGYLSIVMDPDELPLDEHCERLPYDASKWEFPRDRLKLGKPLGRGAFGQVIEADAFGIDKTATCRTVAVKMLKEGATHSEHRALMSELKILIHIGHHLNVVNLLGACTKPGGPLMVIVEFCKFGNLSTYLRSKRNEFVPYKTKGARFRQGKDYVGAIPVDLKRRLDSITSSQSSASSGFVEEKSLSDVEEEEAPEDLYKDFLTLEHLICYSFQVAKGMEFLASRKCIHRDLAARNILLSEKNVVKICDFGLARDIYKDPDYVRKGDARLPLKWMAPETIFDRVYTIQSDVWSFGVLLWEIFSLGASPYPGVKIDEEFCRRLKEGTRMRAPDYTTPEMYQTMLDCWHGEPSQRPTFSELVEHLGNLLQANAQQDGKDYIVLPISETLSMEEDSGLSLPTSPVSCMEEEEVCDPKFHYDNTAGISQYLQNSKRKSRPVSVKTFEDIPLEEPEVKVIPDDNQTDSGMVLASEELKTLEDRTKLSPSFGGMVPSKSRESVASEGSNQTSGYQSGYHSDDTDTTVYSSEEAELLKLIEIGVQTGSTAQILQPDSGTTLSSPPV

CC(=O)Nc1ccc(CNc2cccc(C(=O)/C=C/c3cccnc3)c2)cc1 [Compound 5b, (E)-N-(4-(((3–(3-(pyridin-3-yl)acryloyl)phenyl)amino)methyl)phenyl)acetamide]
inhibition at 10 µM [1]: 97.1%
GI50 [2]: 1.9 µM
inhibition at 10 µM [2, 32]: 165%
GI50 ([3]; read-out: GI50 MG-MID): 5.2 µM
GI50 ([3]; read-out: MG-MID GI50): 5.2 µM
SI (Selectivity Index) ([3]; full panel MG-MID / Renal Cancer subpanel MG-MID): 0.89
GI50 ([4]; CAKI-1): 12.2 µM
inhibition at 10 µM ([4]; CAKI-1, read-out: percent growth inhibition): 95.9%
GI50 ([5]; read-out: GI50 MG-MID): 3.26 µM
GI50 ([5]; read-out: MG-MID GI50): 3.26 µM
SI (Selectivity Index) ([5]; full panel MG-MID / Colon Cancer subpanel MG-MID): 1.43
GI50 ([6]; read-out: GI50 MG-MID): 4.1 µM
GI50 ([6]; read-out: MG-MID GI50): 4.1 µM
SI (Selectivity Index) ([6]; full panel MG-MID / Prostatic Cancer subpanel MG-MID): 1.13
GI50 [7]: 4.14 µM
inhibition at 10 µM [7, 32]: 82%
GI50 [8]: 2.16 µM
GI50 at 48 h [9]: > 100 µM
Safety index [10]: >1
IC50 [11]: 1.77 ± 0.021 µM
inhibition at 10 µM [12]: 52.7%
GI50 ([13]; read-out: GI50 MG-MID): 5.71 µM
GI50 ([13]; read-out: MG-MID GI50): 5.71 µM
SI (Selectivity Index) ([13]; full panel MG-MID / Ovarian Cancer subpanel MG-MID): 0.81
GI50 [14]: 2.01 µM
inhibition at 10 µM [14, 32]: 124%
GI50 [15]: 3.04 µM
GI50 ([16]; KM12): 2.25 µM
inhibition at 10 µM ([16]; KM12, read-out: percent growth inhibition): 162%
GI50 ([17]; RPMI-8226): 1.92 µM
inhibition at 10 µM ([17]; RPMI-8226, read-out: percent growth inhibition): 125%
GI50 ([18]; read-out: GI50 MG-MID): 7.46 µM
GI50 ([18]; read-out: MG-MID GI50): 7.46 µM
SI (Selectivity Index) ([18]; full panel MG-MID / CNS Cancer subpanel MG-MID): 0.62
GI50 ([19]; read-out: Full panel GI50 mean): 4.65 µM
GI50 ([19]; read-out: Full panel MG-MID GI50): 4.65 µM
Full panel Mean GI % ([19]; mean over NCI-60 panel, single dose 10 µM): 123.16%
GI50 ([20]; HCT-15): 2.05 µM
inhibition at 10 µM ([20]; HCT-15, read-out: percent growth inhibition): 138%
GI50 ([21]; UACC-257): 9.35 µM
inhibition at 10 µM ([21]; UACC-257, read-out: percent growth inhibition): 120%
GI50 ([22]; HCC 2998): 1.82 µM
inhibition at 10 µM ([22]; HCC 2998, read-out: percent growth inhibition): 195%
GI50 ([23]; read-out: GI50 MG-MID): 2.45 µM
GI50 ([23]; read-out: MG-MID GI50): 2.45 µM
SI (Selectivity Index) ([23]; full panel MG-MID / Breast Cancer subpanel MG-MID): 1.90
GI50 ([24]; OVCAR-3): 2.85 µM
inhibition at 10 µM ([24]; OVCAR-3, read-out: percent growth inhibition): 190%
GI50 ([25]; NCI-H23): 3.22 µM
inhibition at 10 µM ([25]; NCI-H23, read-out: percent growth inhibition): 148%
GI50 ([26]; read-out: GI50 MG-MID): 7.24 µM
GI50 ([26]; read-out: MG-MID GI50): 7.24 µM
SI (Selectivity Index) ([26]; full panel MG-MID / NSCLC subpanel MG-MID): 0.64
GI50 [27]: 4.87 µM
inhibition at 10 µM [27, 32]: 94.2%
GI50 ([28]; MCF7): 1.38 µM
inhibition at 10 µM ([28]; MCF7, read-out: percent growth inhibition): 178%
GI50 ([29]; HCT-116, HCT-116, five-dose screening): 1.8 µM
inhibition at 10 µM ([29]; HCT-116, read-out: percent growth inhibition): 196%
GI50 ([30]; read-out: GI50 MG-MID): 3.99 µM
GI50 ([30]; read-out: MG-MID GI50): 3.99 µM
SI (Selectivity Index) ([30]; full panel MG-MID / Melanoma subpanel MG-MID): 1.12
GI50 ([31]; read-out: GI50 MG-MID): 2.49 µM
GI50 ([31]; read-out: MG-MID GI50): 2.49 µM
SI (Selectivity Index) ([31]; full panel MG-MID / leukaemia subpanel MG-MID): 1.87
